Here are results for one compound from publication PMC10653909, “PlzD modifies Vibrio vulnificus foraging behavior and virulence in response to elevated c-di-GMP” (mBio, 2023).

The target of this experiment is T1, PlzD.
T1 construct: His-tagged PlzD (aot11_00285, strain ATCC27562), expressed in E. coli BL21(DE3)
The experiment in a line: micro-equilibrium dialysis with UV absorbance at […] nm, purified protein. Format: binding, Vibrio vulnificus. Background: In equilibrium dialysis only unbound substance equilibrates across the membrane.

One may read the Kd as the free concentration of one partner at which half of the binding sites on the other are occupied at equilibrium, for simple one-to-one binding. A high value points to a looser complex. Compound `Nc1nc2c(ncn2[C@@H]2O[C@@H]3COP(=O)(O)O[C@H]4[C@@H](O)[C@H](n5cnc6c(=O)[nH]c(N)nc65)O[C@@H]4COP(=O)(O)O[C@H]3[C@H]2O)c(=O)[nH]1` [c-di-GMP] had an equilibrium dissociation constant (Kd) of 3.9 µM.
